From patent US8569264B2, “Antibacterial 4,5-substituted aminoglycoside analogs having multiple substituents” (ISIS Pharmaceuticals, Inc., priority 2005, dated 2013)
Values after ≈ are worked out from the molar mass of the structure shown. Read-outs that look alike come from different tables or passages of the source. Marks after values point to notes of the source that are not given here.

How the values were obtained:
[1] = system: S. Aureus; assay: MIC, S. Aureus; format: cell-based
Protocol: (§1) The MIC assays are carried out in 150 μL volume in duplicate in 96-well clear flat-bottom plates. The bacterial suspension from an overnight culture growth in appropriate medium is added to a solution of test compound in 4% DMSO in water. Final bacterial inoculum is approximately 10^5-10^6 CFU/well. […] Both ampicillin and tetracycline are used as antibiotic-positive controls in each screening assay for S. pyogenes, E. coli imp-, E. coli, S. aureus, E. faecalis, K. pneumoniae and P. vulgaris. Ciprofloxacin is used as an antibiotic positive control in each screening assay for P. aeruginosa.

[2] = biological target: 16S ribosomal subunit RNA target; assay: Mass spectrometry based binding assay (FTICR), 16S
Protocol: In a typical experiment, 10 μL of an aqueous solution containing 100 mM ammonium acetate buffer, […], and 33% isopropyl alcohol (to aid ion desolvation) was prepared with different concentrations of each ligand or ligand mixture Samples were introduced into the electrospray ionization source (negative ionization mode) at 1 μL/min and ions were stored for 1 sec in an RF-only hexapole following desolvation. The abundances were integrated from the respective ions for free RNA and the ligand-RNA complex. The primary (1:1 RNA:ligand) and secondary (1:2 complex, if observed). […] The peak ratios were measured at each concentration, then a plot of complex/free RNA versus concentration of ligand added was fitted to a second (or higher) order binding polynomial to determine the KD.

[3] = system: E. Coli; assay: MIC, E. Coli; format: cell-based
Protocol: as §1

[4] = biological target: 18S ribosomal subunit RNA target; assay: Mass spectrometry based binding assay (FTICR), 18S
Protocol: In a typical experiment, 10 μL of an aqueous solution containing 100 mM ammonium acetate buffer, 2.5 or 5 μM of each RNA, and 33% isopropyl alcohol (to aid ion desolvation) was prepared with different concentrations of each ligand or ligand mixture Samples were introduced into the electrospray ionization source (negative ionization mode) at 1 μL/min and ions were stored for 1 sec in an RF-only hexapole following desolvation. The abundances were integrated from the respective ions for free RNA and the ligand-RNA complex. The primary (1:1 RNA:ligand) and secondary (1:2 complex, if observed). […] The peak ratios were measured at each concentration, then a plot of complex/free RNA versus concentration of ligand added was fitted to a second (or higher) order binding polynomial to determine the KD.

[5] = system: E. coli S30 bacterial extract (pBestLuc firefly luciferase reporter); assay: Coupled bacterial transcription/translation assay; format: biochemical; conditions: read-out: Trans/Trans IC50
Protocol: The DNA template, pBestLuc™ (Promega), is a plasmid containing a reporter gene for firefly luciferase fused to a strong tac promoter and ribosome binding site. Messenger RNA from 1 μg pBestLuc is transcribed and translated in E. coli S30 bacterial extract in the presence or absence of test compound. Compounds are tested in a black 96 well microtiter plate with an assay volume of 35 μL. […] The transcription/translation reaction is incubated for 35 minutes at 37° C. followed by detection of functional luciferase with the addition of 30 μL LucLite™ (Packard). Light output is quantitated on a Packard TopCount.

[6] = system: Staphylococcus aureus (Smith Strain ATCC 13709); assay: Staphylococcus aureus mouse protection assay; format: in vivo, mice; conditions: for # Dead mice/Total mice in group: Staph Conc. 10^6, 10% Mucin
Protocol: Two of the novel aminoglycoside compounds of the invention were examined for their anitbacterial activity against staphylococcus aureus. Mice were fed with autoclaved commercial food pellets and sterile water ad libitum. Animals were inoculated intraperitoneally with 0.5 mL/mouse of the indicated concentration of S. aureus (ATCC 13709) containing 10% mucin. There were 10 mice in each treatment group and compounds were administered subcutaneously one and 3 hour after infection. Compounds 15a (R4═R5═CH3) and 15j (R4═H, R5═(CH2)2C6H5)) were used at 75 mg/kg, 37.5 mg/kg, 18.8 mg/kg, 9.4 mg/kg, 4.7 mg/kg, 2.3 mg/kg, 1.17 mg/kg and 0.5 mg/kg. Amakacin, paromomycin and neomycin were used as the positive controls at concentrations of 2 mg/kg, 1 mg/kg and 0.5 mg/kg.
Test compound was administered as an aqueous buffer solution (phosphate buffered saline (PBS), pH=7.4).

[7] = FTICR mass spectrometry, run at 100 nM RNA, Example 105
[8] = FTICR mass spectrometry, Example 105

## NCC1OC(OC2C(CO)OC(OC3C(O)C(N)CC(N)C3OC3OC(CO)C(O)C(O)C3N)C2OCCNCc2ccnc(N)c2)C(N)C(O)C1O (centres unmarked) [Compound 9t]
[1]; Example 105
  MIC S. Aureus: 0.6-1^ uM
[2]; [7]
  Kd: 20 nM
[3]; Example 105
  MIC E. Coli.: 6 to 12 µM
[4]; [8]
  Kd: 300 nM
[5]; Example 105
  IC50: 700 nM

## NCC1OC(OC2C(CO)OC(OC3C(O)C(N)CC(N)C3OC3OC(CO)C(O)C(O)C3N)C2OCCNc2cccnc2)C(N)C(O)C1O (centres unmarked) [Compound 9a]
[1]; Example 105
  MIC S. Aureus: 0.6-1^ uM
[2]; [7]
  Kd: 600 nM
[3]; Example 105
  MIC E. Coli.: 3-6^b uM
[4]; [8]
  Kd: 3500 nM
[5]; Example 105
  IC50: 100 nM

## CN(C)CC1OC(OC2C(N)CC(N)C(O)C2OC2OC(CO)C(OC3OC(CN)C(O)C(O)C3N)C2O)C(N)C(O)C1O (centres unmarked) [Compound 15a]
[1]; Example 108
  MIC S. Aureus: 2 to 3 µM
[2]; Example 108
  Kd: 600 nM
[6]; 0.5 mg/kg subcutaneously, the 13th table
  # Dead mice/Total mice in group: 8/10
[6]; 1 mg/kg subcutaneously, the 13th table
  # Dead mice/Total mice in group: 7/10
[6]; 2 mg/kg subcutaneously, the 13th table
  # Dead mice/Total mice in group: 7/10
[6]; 4.5 mg/kg subcutaneously, the 13th table
  # Dead mice/Total mice in group: 1/10
[6]; 9 mg/kg subcutaneously, the 13th table
  # Dead mice/Total mice in group: 0/10
[6]; 18 mg/kg subcutaneously, the 13th table
  # Dead mice/Total mice in group: 0/10
[6]; 37 mg/kg subcutaneously, the 13th table
  # Dead mice/Total mice in group: 0/10
[6]; 75 mg/kg subcutaneously one and 3 hour after infection, intraperitoneal, the 13th table
  # Dead mice/Total mice in group: 0/10
[3]; Example 108
  MIC E. Coli.: 3 to 6 µM
[4]; Example 108
  Kd: 700 nM
[5]; Example 108
  IC50: 300 nM

## NCC1OC(OC2C(CO)OC(OC3C(O)C(N)CC(N)C3OC3OC(CO)C(O)C(O)C3N)C2OCCNC23CC4CC(CC(O)(C4)C2)C3)C(N)C(O)C1O (centres unmarked) [Compound 9w]
[1]; Example 106
  MIC S. Aureus: 1 to 3 µM
[2]; Example 106
  Kd: 3200 nM
[3]; Example 106
  MIC E. Coli.: 20 to 40 µM
[4]; Example 106
  Kd: 1700 nM
[5]; Example 106
  IC50: 400 nM

## NCC1OC(OC2C(CO)OC(OC3C(O)C(N)CC(N)C3OC3OC(CO)C(O)C(O)C3N)C2OCCNCCCc2ccccc2)C(N)C(O)C1O (centres unmarked) [Compound 9x]
[1]; Example 105
  MIC S. Aureus: 0.6 to 1.2 µM
[2]; [7]
  Kd: 1000 nM
[3]; Example 105
  MIC E. Coli.: 3 to 5 µM
[4]; [8]
  Kd: 6300 nM
[5]; Example 105
  IC50: 100 nM

## NCC1OC(OC2C(CO)OC(OC3C(O)C(N)CC(N)C3OC3OC(CO)C(O)C(O)C3N)C2OCCNCc2cccnc2)C(N)C(O)C1O (centres unmarked) [Compound 9b]
[1]; Example 105
  MIC S. Aureus: 0.6-1^ uM
[2]; [7]
  Kd: 900 nM
[6]; 0.1 mg/kg in PBS pH=7.4, the 14th table
  # Dead mice/Total mice in group: 7/10 (10% Mucin)
[6]; 0.5 mg/kg in PBS pH=7.4, the 14th table
  # Dead mice/Total mice in group: 3/10 (10% Mucin)
[6]; 1 mg/kg in PBS pH=7.4, the 14th table
  # Dead mice/Total mice in group: 0/10 (10% Mucin)
[6]; 2 mg/kg in PBS pH=7.4, the 14th table
  # Dead mice/Total mice in group: 0/10 (10% Mucin)
[6]; 4.5 mg/kg in PBS pH=7.4, the 14th table
  # Dead mice/Total mice in group: 0/10 (10% Mucin)
[6]; 9 mg/kg in PBS pH=7.4, the 14th table
  # Dead mice/Total mice in group: 0/10 (10% Mucin)
[6]; 18 mg/kg in PBS pH=7.4, the 14th table
  # Dead mice/Total mice in group: 0/10 (10% Mucin)
[6]; 37 mg/kg in PBS pH=7.4, the 14th table
  # Dead mice/Total mice in group: 0/10 (10% Mucin)
[6]; 75 mg/kg in PBS pH=7.4, the 14th table
  # Dead mice/Total mice in group: 0/10 (10% Mucin)
[6]; […] in PBS pH=7.4, the 14th table
  # Dead mice/Total mice in group: 6/10 (10% Mucin)
[6]; result in words, summary of the 14th table
  prevention of lethal bacterial infections in mice: effective at preventing lethal bacterial infections in mice
[3]; Example 105
  MIC E. Coli.: 6-12^b uM
[4]; [8]
  Kd: 9400 nM
[5]; Example 105
  IC50: 100 nM

## NC[C@@H]1O[C@H](O[C@H]2[C@@H](OCCO)[C@H](O[C@@H]3[C@@H](O)[C@H](N)C[C@H](N)[C@H]3O[C@H]3O[C@H](CO)[C@@H](O)[C@H](O)[C@H]3N)O[C@@H]2CO)[C@H](N)[C@@H](O)[C@@H]1O [Compound 12a]
[1]; Example 105
  MIC S. Aureus: 6 to 12 µM
[2]; [7]
  Kd: 900 nM
[3]; Example 105
  MIC E. Coli.: 12 to 25 µM
[4]; [8]
  Kd: 7300 nM
[5]; Example 105
  IC50: 100 nM

## NCC1OC(OC2C(CO)OC(OC3C(O)C(N)CC(N)C3OC3OC(CO)C(O)C(O)C3N)C2OCCNCCc2ccc3ccccc3c2)C(N)C(O)C1O (centres unmarked) [Compound 9ak]
[1]; Example 105
  MIC S. Aureus: 1-3. uM
[2]; [7]
  Kd: 700 nM
[3]; Example 105
  MIC E. Coli.: 10 to 20 µM
[4]; [8]
  Kd: 3500 nM
[5]; Example 105
  IC50: 300 nM

## NC[C@@H]1O[C@H](O[C@H]2[C@@H](OCCCCCc3ccccc3)[C@H](O[C@@H]3[C@@H](O)[C@H](N)C[C@H](N)[C@H]3O[C@H]3O[C@H](CO)[C@@H](O)[C@H](O)[C@H]3N)O[C@@H]2CO)[C@H](N)[C@@H](O)[C@@H]1O [Compound 14c]
[1]; Example 107
  MIC S. Aureus: 3 to 5 µM
[1]; Staphylococcus aureus, Example 105
  MIC: 3 to 5 µM (≈ 2.29 to 3.81 µg/mL)
[2]; [7]
  Kd: 40000 nM
[3]; Escherichia coli, Example 105
  MIC: 10 to 20 µM (≈ 7.62 to 15.2 µg/mL)
[3]; Example 107
  MIC E. Coli.: 10 to 20 µM
[4]; [8]
  Kd: 59000 nM
[5]; Example 105
  IC50: 200 nM

## NCC1OC(OC2C(CO)OC(OC3C(O)C(N)CC(N)C3OC3OC(CN4CCOCC4)C(O)C(O)C3N)C2O)C(N)C(O)C1O (centres unmarked) [Compound 15c]
[1]; Example 108
  MIC S. Aureus: 10 to 20 µM
[2]; Example 108
  Kd: 3600 nM
[3]; Example 108
  MIC E. Coli.: 20 to 40 µM
[4]; Example 108
  Kd: 3000 nM
[5]; Example 108
  IC50: 300 nM
